Consider one compound from patent publication US12605404B2, “Synthetic cellular membrane chemical ionophore delivery system comprising hexa-aqua ligand compositions” (priority 2021, dated 2026).

This test concerns Staphylococcus aureus (MRSA). The test is described as follows: Broth Microdilution (CLSI-BMD), non-biofilm, 10 MRSA isolates. It counts as cell-based. The text has this: A non-biofilm antimicrobial assay using the broth microdilution-based sensitivity method was completed at the University of Debrecen, Hungary. […] A percentage solution calculation established that twice the amount of vancomycin was needed to create the same 50% turbidity reduction in MRSA when tested in comparison to ZC-1.
(In general: Dilution methods test growth across graded concentrations, often in twofold steps.)

On to `CN[C@H](CC(C)C)C(=O)N[C@H]1C(=O)N[C@@H](CC(N)=O)C(=O)N[C@H]2C(=O)N[C@H]3C(=O)N[C@H](C(=O)N[C@H](C(=O)O)c4cc(O)cc(O)c4-c4cc3ccc4O)[C@H](O)c3ccc(c(Cl)c3)Oc3cc2cc(c3O[C@@H]2O[C@H](CO)[C@@H](O)[C@H](O)[C@H]2O[C@H]2C[C@](C)(N)[C@H](O)[C@H](C)O2)Oc2ccc(cc2Cl)[C@H]1O` [Vancomycin], for which, where the note is “control, 10 MRSA isolates”, the “MIC values, range” value lay in the range of 4 to 16 µg/mL. In addition, for the setting “percentage solution calculation”, the “amount needed for the same 50% turbidity reduction in MRSA, in comparison to ZC-1” value is recorded as “twice”.
